Results from patent US20230172930A1, “USE OF COMPLEMENT FACTOR D INHIBITORS ALONE OR IN COMBINATION WITH ANTI-C5 ANTIBODIES FOR TREATMENT OF PAROXYSMAL NOCTURNAL HEMOGLOBINURIA” (Alexion Pharmaceuticals, Inc., priority 2020, published 2023).

Test system: PNH patients with an inadequate response to eculizumab
Assay: Phase 2 open-label study of danicopan added to eculizumab: laboratory markers of PNH (Hgb, LDH, reticulocytes, bilirubin)
Type: in vivo, human
Conditions: for Direct bilirubin, mean / LDH, mean / Reticulocytes, mean / Total bilirubin, mean: all patients N=11
Protocol: All doses were taken approximately 15-30 minutes after completion of a meal or snack. Dose escalations, to a maximum of 200 mg three times a day, were based on safety and hemoglobin values and permitted at 4-week intervals through week 12 at 50 mg increments. If the patient had not already reached the 200 mg three times daily maximal dose by week 12, escalation was permitted if clinically indicated. […] Patients completing treatment with clinical benefit entered a long-term extension phase.
Descriptive statistics are provided for biochemical, quality-of-life measurements, and transfusion data. Continuous variables are summarized with mean, median, minimum and maximum values. Categorical variables, e.g., transfusion-independent, are summarized with counts and percentages. Missing values were not imputed.

[1] = Patient A, Baseline, before danicopan, on eculizumab 900 mg q14d
[2] = Patient A, Week 12, danicopan 150 mg TID + eculizumab 900 mg q14d
[3] = Patient A, Week 24, danicopan 150 mg TID + eculizumab 900 mg q14d
[4] = Patient B, Baseline, before danicopan, on eculizumab 1200 mg q14d
[5] = Patient B, Week 12, danicopan 100 mg TID + eculizumab 900 mg q14d
[6] = Patient B, Week 24, danicopan 100 mg TID + eculizumab 900 mg q14d
[7] = Patient C, Baseline, before danicopan, on eculizumab 900 mg q14d
[8] = Patient C, Week 12, danicopan 150 mg TID + eculizumab 900 mg q14d
[9] = Patient C, Week 24, danicopan 150 mg TID + eculizumab 900 mg q14d
[10] = Patient D, Baseline, before danicopan, on eculizumab 900 mg q14d
[11] = Patient D, Week 12, danicopan 150 mg TID + eculizumab 900 mg q14d
[12] = Patient D, Week 24, danicopan 150 mg TID + eculizumab 900 mg q14d
[13] = Patient E, Baseline, before danicopan, on eculizumab 1200 mg q14d
[14] = Patient E, Week 12, danicopan 150 mg TID + eculizumab 1200 mg q14d
[15] = Patient E, Week 24, danicopan 150 mg TID + eculizumab 1200 mg q14d
[16] = Patient F, Baseline, before danicopan, on eculizumab 900 mg q14d
[17] = Patient F, Week 12, danicopan 150 mg TID + eculizumab 900 mg q14d
[18] = Patient F, Week 24, danicopan 150 mg TID + eculizumab 900 mg q14d
[19] = Patient G, Baseline, before danicopan, on eculizumab 1500 mg q14d
[20] = Patient G, Week 12, danicopan 100 mg TID + eculizumab 1500 mg q14d
[21] = Patient G, Week 24, danicopan 100 mg TID + eculizumab 1500 mg q14d
[22] = Patient H, Baseline, before danicopan, on eculizumab 900 mg q14d
[23] = Patient H, Week 12, danicopan 200 mg TID + eculizumab 900 mg q14d
[24] = Patient H, Week 24, danicopan 200 mg TID + eculizumab 900 mg q14d
[25] = Patient I, Baseline, before danicopan, on eculizumab 900 mg q14d
[26] = Patient I, Week 12, danicopan 100 mg TID + eculizumab 900 mg q14d
[27] = Patient I, Week 24, danicopan 200 mg TID + eculizumab 900 mg q14d
[28] = Patient J, Baseline, before danicopan, on eculizumab 1200 mg q14d
[29] = Patient J, Week 12, danicopan 100 mg TID + eculizumab 1200 mg q14d
[30] = Patient J, Week 24, danicopan 200 mg TID + eculizumab 1200 mg q14d
[31] = Patient K, Baseline, before danicopan, on eculizumab 900 mg q14d
[32] = Patient K, Week 12, danicopan 100 mg TID + eculizumab 900 mg q14d
[33] = Patient K, Week 24, danicopan 150 mg TID + eculizumab 900 mg q14d
[34] = Baseline, before danicopan, on eculizumab
[35] = Week 24, danicopan 100-200 mg TID + eculizumab

## CC(=O)c1nn(CC(=O)N2C[C@H](F)C[C@H]2C(=O)Nc2cccc(Br)n2)c2ccc(-c3cnc(C)nc3)cc12 [Danicopan, danicopan]
[1]
  Direct bilirubin: 0.44 mg/dL
  Hgb: 5.00 g/dL
  LDH: 1.7 ×ULN
  Reticulocytes: 159 10^9/μL
  Total bilirubin: 2.14 mg/dL
[2]
  Direct bilirubin: 0.33 mg/dL
  Hgb: 7.70 g/dL
  LDH: 1.2 ×ULN
  Reticulocytes: 121 10^9/μL
  Total bilirubin: 1.80 mg/dL
[3]
  Direct bilirubin: 0.48 mg/dL
  Hgb: 8.50 g/dL
  LDH: 1.1 ×ULN
  Reticulocytes: 112 10^9/μL
  Total bilirubin: 2.40 mg/dL
[4]
  Direct bilirubin: 0.29 mg/dL
  Hgb: 9.80 g/dL
  LDH: 1.0 ×ULN
  Reticulocytes: 250 10^9/μL
  Total bilirubin: 1.24 mg/dL
[5]
  Direct bilirubin: 0.18 mg/dL
  Hgb: 11.8 g/dL
  LDH: 0.8 ×ULN
  Reticulocytes: 123 10^9/μL
  Total bilirubin: 0.89 mg/dL
[6]
  Direct bilirubin: 0.20 mg/dL
  Hgb: 13.3 g/dL
  LDH: 0.9 ×ULN
  Reticulocytes: 162 10^9/μL
  Total bilirubin: 0.81 mg/dL
[7]
  Direct bilirubin: 0.24 mg/dL
  Hgb: 7.60 g/dL
  LDH: 0.8 ×ULN
  Reticulocytes: 141 10^9/μL
  Total bilirubin: 1.03 mg/dL
[8]
  Direct bilirubin: 0.16 mg/dL
  Hgb: 9.00 g/dL
  LDH: 0.9 ×ULN
  Reticulocytes: 97.0 10^9/μL
  Total bilirubin: 0.580 mg/dL
[9]
  Direct bilirubin: 0.16 mg/dL
  Hgb: 9.70 g/dL
  LDH: 0.9 ×ULN
  Reticulocytes: 87.0 10^9/μL
  Total bilirubin: 0.580 mg/dL
[10]
  Direct bilirubin: 0.43 mg/dL
  Hgb: 10.4 g/dL
  LDH: 1.1 ×ULN
  Reticulocytes: 191 10^9/μL
  Total bilirubin: 2.26 mg/dL
[11]
  Direct bilirubin: 0.15 mg/dL
  Hgb: 11.7 g/dL
  LDH: 1.2 ×ULN
  Reticulocytes: 56.0 10^9/μL
  Total bilirubin: 0.700 mg/dL
[12]
  Direct bilirubin: 0.17 mg/dL
  Hgb: 11.5 g/dL
  LDH: 0.9 ×ULN
  Reticulocytes: 56.0 10^9/μL
  Total bilirubin: 0.650 mg/dL
[13]
  Direct bilirubin: 0.72 mg/dL
  Hgb: 8.60 g/dL
  LDH: 1.2 ×ULN
  Reticulocytes: 120 10^9/μL
  Total bilirubin: 2.35 mg/dL
[14]
  Direct bilirubin: 0.40 mg/dL
  Hgb: 7.60 g/dL
  LDH: 1.3 ×ULN
  Reticulocytes: 179 10^9/μL
  Total bilirubin: 2.22 mg/dL
[15]
  Direct bilirubin: 0.60 mg/dL
  Hgb: 9.40 g/dL
  LDH: 1.2 ×ULN
  Reticulocytes: 90.0 10^9/μL
  Total bilirubin: 1.75 mg/dL
[16]
  Direct bilirubin: 0.82 mg/dL
  Hgb: 7.20 g/dL
  LDH: 0.9 ×ULN
  Reticulocytes: 405 10^9/μL
  Total bilirubin: 3.93 mg/dL
[17]
  Direct bilirubin: 0.49 mg/dL
  Hgb: 9.30 g/dL
  LDH: 0.9 ×ULN
  Reticulocytes: 243 10^9/μL
  Total bilirubin: 1.50 mg/dL
[18]
  Direct bilirubin: 0.78 mg/dL
  Hgb: 10.6 g/dL
  LDH: 0.9 ×ULN
  Reticulocytes: 253 10^9/μL
  Total bilirubin: 2.95 mg/dL
[19]
  Direct bilirubin: 0.39 mg/dL
  Hgb: 7.10 g/dL
  LDH: 0.6 ×ULN
  Reticulocytes: 262 10^9/μL
  Total bilirubin: 1.20 mg/dL
[20]
  Direct bilirubin: 0.50 mg/dL
  Hgb: 9.40 g/dL
  LDH: 0.5 ×ULN
  Reticulocytes: 200 10^9/μL
  Total bilirubin: 1.90 mg/dL
[21]
  Direct bilirubin: 0.39 mg/dL
  Hgb: 9.10 g/dL
  LDH: 0.9 ×ULN
  Reticulocytes: 239 10^9/μL
  Total bilirubin: 1.25 mg/dL
[22]
  Direct bilirubin: 0.78 mg/dL
  Hgb: 7.70 g/dL
  LDH: 1.5 ×ULN
  Reticulocytes: 238 10^9/μL
  Total bilirubin: 2.18 mg/dL
[23]
  Direct bilirubin: 0.53 mg/dL
  Hgb: 7.30 g/dL
  LDH: 1.8 ×ULN
  Reticulocytes: 206 10^9/μL
  Total bilirubin: 2.04 mg/dL
[24]
  Direct bilirubin: 0.52 mg/dL
  Hgb: 7.50 g/dL
  LDH: 1.4 ×ULN
  Reticulocytes: 169 10^9/μL
  Total bilirubin: 1.57 mg/dL
[25]
  Direct bilirubin: 0.23 mg/dL
  Hgb: 7.70 g/dL
  LDH: 0.9 ×ULN
  Reticulocytes: 200 10^9/μL
  Total bilirubin: 0.56 mg/dL
[26]
  Direct bilirubin: 0.18 mg/dL
  Hgb: 10.8 g/dL
  LDH: 0.9 ×ULN
  Reticulocytes: 110 10^9/μL
  Total bilirubin: 0.34 mg/dL
[27]
  Direct bilirubin: 0.18 mg/dL
  Hgb: 11.5 g/dL
  LDH: 0.9 ×ULN
  Reticulocytes: 96 10^9/μL
  Total bilirubin: 0.32 mg/dL
[28]
  Direct bilirubin: 0.68 mg/dL
  Hgb: 7.80 g/dL
  LDH: 1.3 ×ULN
  Reticulocytes: 258 10^9/μL
  Total bilirubin: 3.24 mg/dL
[29]
  Hgb: 10.2 g/dL
  Reticulocytes: 292 10^9/μL
[30]
  Direct bilirubin: 0.23 mg/dL
  Hgb: 11.0 g/dL
  LDH: 1.2 ×ULN
  Reticulocytes: 152 10^9/μL
  Total bilirubin: 1.14 mg/dL
[31]
  Direct bilirubin: 0.64 mg/dL
  Hgb: 8.40 g/dL
  LDH: 0.9 ×ULN
  Reticulocytes: 188 10^9/μL
  Total bilirubin: 3.76 mg/dL
[32]
  Direct bilirubin: 0.39 mg/dL
  Hgb: 9.40 g/dL
  LDH: 1.2 ×ULN
  Reticulocytes: 88.0 10^9/μL
  Total bilirubin: 1.85 mg/dL
[33]
  Direct bilirubin: 0.31 mg/dL
  Hgb: 11.5 g/dL
  LDH: 1.1 ×ULN
  Reticulocytes: 69.0 10^9/μL
  Total bilirubin: 1.41 mg/dL
Addition of danicopan to eculizumab in patients that continued to be anemic
  raise in hemoglobin: over 2 g/dL
[34]
  Direct bilirubin, mean: 0.51 mg/dL
  LDH, mean: 1.06 ×ULN
  Reticulocytes, mean: 219 10^9/μL
  Total bilirubin, mean: 2.17 mg/dL
[35]
  Direct bilirubin, mean: 0.37 mg/dL
  LDH, mean: 1.04 ×ULN
  Reticulocytes, mean: 135 10^9/μL
  Total bilirubin, mean: 1.35 mg/dL
At 24 Weeks of treatment vs baseline, danicopan added to eculizumab
  mean increase in Hgb: 2.4 g/dL
Danicopan added to background eculizumab
  mean increase in Hgb: 2.4 gram
Patient without transfusion history (Patient A), baseline 5 g/dL, at 24-weeks
  raise in hemoglobin: over 3 g/dL
